ChEMBL document CHEMBL3885861, “Open TG-GATES”

Species on record: Rattus norvegicus
Assay: Open TG-GATES - Regimen: Daily Repeat
Type: toxicity, organism-based, Sprague-Dawley
Design: regimen Daily Repeat, gender Male, age 6 weeks
Settings: in vivo, po, 0 mg/kg, route gavage, dose level Control; for APTT / Bas / Eos / Fbg / Hb / Ht / Lym / MCH / MCHC / MCV / Mono / Neu / PT / Plat / RBC / Ret / WBC: tissue Blood; for KIDNEY_L / KIDNEY_R / KIDNEY_TOTAL: tissue Kidney; for LIVER: tissue Liver; for ALP / ALT / AST / BUN / CRE / Ca / DBIL / GLC / IP / K / LDH / Na / PL / RALB / TBIL / TC / TG / TP / gamma-GTP: tissue Plasma

CSc1ccc2c(c1)N(CCC1CCCCN1C)c1ccccc1S2 (stereo not drawn) [THIORIDAZINE]
TERMINAL_BW (72 h, time 3 day): 237.9 g | APTT (72 h, time 3 day): 16.6 s | Bas (72 h, time 3 day): 0% | Eos (72 h, time 3 day): 1% | Fbg (72 h, time 3 day): 215.2 mg/dL | Hb (72 h, time 3 day): 13.7 g/dL | Ht (72 h, time 3 day): 40.7% | Lym (72 h, time 3 day): 78% | MCH (72 h, time 3 day): 21.7 pg | MCHC (72 h, time 3 day): 33.7% | MCV (72 h, time 3 day): 64.4 fL | Mono (72 h, time 3 day): 8.4% | Neu (72 h, time 3 day): 13% | PT (72 h, time 3 day): 11.9 s | Plat (72 h, time 3 day): 107.7 x10_4/uL | RBC (72 h, time 3 day): 631.6 x10_4/ul | Ret (72 h, time 3 day): 8.1% | WBC (72 h, time 3 day): 120 x10_2/uL | KIDNEY_L (72 h, time 3 day): 1.1 g | KIDNEY_R (72 h, time 3 day): 1.1 g | KIDNEY_TOTAL (72 h, time 3 day): 2.2 g | LIVER (72 h, time 3 day): 12 g | ALP (72 h, time 3 day): 821.6 IU/L | ALT (72 h, time 3 day): 37 IU/L | AST (72 h, time 3 day): 63.8 IU/L | BUN (72 h, time 3 day): 16.6 mg/dL | CRE (72 h, time 3 day): 0.5 mg/dL | Ca (72 h, time 3 day): 11.1 mg/dL | DBIL (72 h, time 3 day): 0.034 mg/dL | GLC (72 h, time 3 day): 193.4 mg/dL | IP (72 h, time 3 day): 9.3 mg/dL | K (72 h, time 3 day): 5.2 meq/L | LDH (72 h, time 3 day): 95 IU/L | Na (72 h, time 3 day): 139.4 meq/L | PL (72 h, time 3 day): 159.6 mg/dL | RALB (72 h, time 3 day): 4.2 g/dL | TBIL (72 h, time 3 day): 0.4 mg/dL | TC (72 h, time 3 day): 87 mg/dL | TG (72 h, time 3 day): 88.2 mg/dL | TP (72 h, time 3 day): 6 g/dL | gamma-GTP (72 h, time 3 day): 1.2 IU/L | TERMINAL_BW ([…], time 7 day): 272.6 g | TERMINAL_BW ([…], time 14 day): 326.5 g | TERMINAL_BW ([…], time 28 day): 411.3 g | APTT ([…], time 7 day): 15.1 s | Bas ([…], time 7 day): 0% | Eos ([…], time 7 day): 0.6% | Fbg ([…], time 7 day): 241.2 mg/dL | Hb ([…], time 7 day): 13.9 g/dL | Ht ([…], time 7 day): 41.7% | Lym ([…], time 7 day): 83% | MCH ([…], time 7 day): 21.7 pg | MCHC ([…], time 7 day): 33.3% | MCV ([…], time 7 day): 65 fL | Mono ([…], time 7 day): 6.2% | Neu ([…], time 7 day): 10.2% | PT ([…], time 7 day): 11.6 s | Plat ([…], time 7 day): 100.8 x10_4/uL | RBC ([…], time 7 day): 642.4 x10_4/ul | Ret ([…], time 7 day): 5.4% | WBC ([…], time 7 day): 141.4 x10_2/uL | APTT ([…], time 14 day): 16.8 s | Bas ([…], time 14 day): 0% | Eos ([…], time 14 day): 0.6% | Fbg ([…], time 14 day): 243.4 mg/dL | Hb ([…], time 14 day): 14.4 g/dL | Ht ([…], time 14 day): 42.9% | Lym ([…], time 14 day): 78.4% | MCH ([…], time 14 day): 20.6 pg | MCHC ([…], time 14 day): 33.5% | MCV ([…], time 14 day): 61.5 fL | Mono ([…], time 14 day): 6.4% | Neu ([…], time 14 day): 14.6% | PT ([…], time 14 day): 11.5 s | Plat ([…], time 14 day): 106.3 x10_4/uL | RBC ([…], time 14 day): 697.6 x10_4/ul | Ret ([…], time 14 day): 4.5% | WBC ([…], time 14 day): 129.7 x10_2/uL | APTT ([…], time 28 day): 18.1 s | Bas ([…], time 28 day): 0% | Eos ([…], time 28 day): 0.6% | Fbg ([…], time 28 day): 234.6 mg/dL | Hb ([…], time 28 day): 15.2 g/dL | Ht ([…], time 28 day): 45.5% | Lym ([…], time 28 day): 83.4% | MCH ([…], time 28 day): 19.8 pg | MCHC ([…], time 28 day): 33.4% | MCV ([…], time 28 day): 59.2 fL | Mono ([…], time 28 day): 7.6% | Neu ([…], time 28 day): 8.2% | PT ([…], time 28 day): 11.8 s | Plat ([…], time 28 day): 98 x10_4/uL | RBC ([…], time 28 day): 769.4 x10_4/ul | Ret ([…], time 28 day): 3% | WBC ([…], time 28 day): 131.4 x10_2/uL | KIDNEY_L ([…], time 7 day): 1.2 g | KIDNEY_R ([…], time 7 day): 1.2 g | KIDNEY_TOTAL ([…], time 7 day): 2.4 g | KIDNEY_L ([…], time 14 day): 1.3 g | KIDNEY_R ([…], time 14 day): 1.3 g | KIDNEY_TOTAL ([…], time 14 day): 2.6 g | KIDNEY_L ([…], time 28 day): 1.5 g | KIDNEY_R ([…], time 28 day): 1.5 g | KIDNEY_TOTAL ([…], time 28 day): 2.9 g | LIVER ([…], time 7 day): 13.4 g | LIVER ([…], time 14 day): 15.6 g | LIVER ([…], time 28 day): 18.7 g | ALP ([…], time 7 day): 973 IU/L | ALT ([…], time 7 day): 32.4 IU/L | AST ([…], time 7 day): 65 IU/L | BUN ([…], time 7 day): 18.2 mg/dL | CRE ([…], time 7 day): 0.5 mg/dL | Ca ([…], time 7 day): 11.4 mg/dL | DBIL ([…], time 7 day): 0.016 mg/dL | GLC ([…], time 7 day): 181.2 mg/dL | IP ([…], time 7 day): 9 mg/dL | K ([…], time 7 day): 5.2 meq/L | LDH ([…], time 7 day): 149.4 IU/L | Na ([…], time 7 day): 141.6 meq/L | PL ([…], time 7 day): 175 mg/dL | RALB ([…], time 7 day): 4 g/dL | TBIL ([…], time 7 day): 0.3 mg/dL | TC ([…], time 7 day): 89.2 mg/dL | TG ([…], time 7 day): 140.8 mg/dL | TP ([…], time 7 day): 5.9 g/dL | gamma-GTP ([…], time 7 day): 1.4 IU/L | ALP ([…], time 14 day): 864.8 IU/L | ALT ([…], time 14 day): 33.4 IU/L | AST ([…], time 14 day): 57.2 IU/L | BUN ([…], time 14 day): 19 mg/dL | CRE ([…], time 14 day): 0.5 mg/dL | Ca ([…], time 14 day): 10.8 mg/dL | DBIL ([…], time 14 day): 0.014 mg/dL | GLC ([…], time 14 day): 189.8 mg/dL | IP ([…], time 14 day): 8 mg/dL | K ([…], time 14 day): 4.9 meq/L | LDH ([…], time 14 day): 96.8 IU/L | Na ([…], time 14 day): 139.8 meq/L | PL ([…], time 14 day): 163.6 mg/dL | RALB ([…], time 14 day): 4.1 g/dL | TBIL ([…], time 14 day): 0.3 mg/dL | TC ([…], time 14 day): 71.8 mg/dL | TG ([…], time 14 day): 200.4 mg/dL | TP ([…], time 14 day): 6.3 g/dL | gamma-GTP ([…], time 14 day): 0.8 IU/L | ALP ([…], time 28 day): 618.8 IU/L | ALT ([…], time 28 day): 34.6 IU/L | AST ([…], time 28 day): 62 IU/L | BUN ([…], time 28 day): 20.4 mg/dL | CRE ([…], time 28 day): 0.6 mg/dL | Ca ([…], time 28 day): 10.7 mg/dL | DBIL ([…], time 28 day): 0 mg/dL | GLC ([…], time 28 day): 191.4 mg/dL | IP ([…], time 28 day): 6.7 mg/dL | K ([…], time 28 day): 4.5 meq/L | LDH ([…], time 28 day): 135.2 IU/L | Na ([…], time 28 day): 139.4 meq/L | PL ([…], time 28 day): 170.8 mg/dL | RALB ([…], time 28 day): 4.1 g/dL | TBIL ([…], time 28 day): 0.3 mg/dL | TC ([…], time 28 day): 87.4 mg/dL | TG ([…], time 28 day): 186.2 mg/dL | TP ([…], time 28 day): 6.5 g/dL
